Patent US9040458B2, “Safening composition of 6-(trisubstituded phenyl)-4-amino-2-pyridinecarboxylate herbicides and cloquintocet-mexyl for cereal crops” (Dow AgroSciences LLC, priority 2008, dated 2015)

What was measured:
Settings in all cases: 20-22 d
[1] = tested on: LAMPU (purple deadnettle); assay: Postemergence herbicidal activity, greenhouse, visual injury; type: in vivo, Lamium purpureum
Description: (§1) Seeds of the desired test plant species were planted in Sun Gro MetroMix® 306 planting mixture, which typically has a pH of 6.0 to 6.8 and an organic matter content of about 30 percent, in plastic pots with a surface area of 103.2 square centimeters (cm^2). When required to ensure good germination and healthy plants, a fungicide treatment and/or other chemical or physical treatment was applied. The plants were grown for 7-36 days (d) in a greenhouse with an approximate […] photoperiod which was maintained at about 18° C. during the day and 17° C. during the night. Nutrients and water were added on a regular basis and supplemental lighting was provided with overhead metal halide 1000-Watt lamps as necessary. The plants were employed for testing when they reached the second or third true leaf stage.
(§2) Weighed amounts of esters (methyl) or salts (TEA [triethylammonium], potassium [K]) of 4-amino-3-chloro-6-(4-chloro-2-fluoro-3-methoxyphenyl)pyridine-2-carboxylic acid (Compound 1) were dissolved in a volume of 97:3 volume/volume (v/v) acetone/dimethylsulfoxide (DMSO) to obtain stock solutions. […] The concentrated stock solutions were diluted with an aqueous mixture of 1.5% v/v of Agri-dex crop oil concentrate to provide the appropriate application rates. Compound requirements are based upon a 12 mL application volume at a rate of 187 liters per hectare (L/ha). Stocks solutions of the safeners were prepared following the same procedure. Spray solutions of the safeners and experimental compound mixtures were prepared by adding the appropriate volume of both stock solutions to the appropriate amount of dilution solution to form a 12 mL spray solution with active ingredients in two-way combinations. Formulated compounds were applied to the plant material with an overhead Mandel track sprayer equipped with 8002E nozzles calibrated to deliver 187 L/ha over an application area of 0.503 square meters (m^2) at a spray height of 18 inches (43 centimeters (cm)) above average plant canopy. Control plants were sprayed in the same manner with the solvent blank.
(§3) The treated plants and control plants were placed in a greenhouse as described above and watered by sub-irrigation to prevent wash-off of the test compounds. After 20-22 d, the condition of the test plants as compared with that of the control plants was determined visually and scored on a scale of 0 to 100 percent where 0 corresponds to no injury and 100 corresponds to complete kill.
(§4) Colby's equation was used to determine the herbicidal effects expected from the mixtures (Colby, S. R., Calculation of the synergistic and antagonistic response of herbicide combinations. Weeds 1967, 15, 20-22.).
(§5) The following equation was used to calculate the expected activity of mixtures containing two active ingredients, A and B: Expected=A+B−(A×B/100)
(§6) A=observed efficacy of active ingredient A at the same concentration as used in the mixture.
(§7) B=observed efficacy of active ingredient B at the same concentration as used in the mixture.

[2] = tested on: HORVS = Hordeum vulgare (spring barley); assay: Postemergence herbicidal safening, greenhouse, visual injury; type: in vivo
Description: as §1, §2, §3, §4, §5, §6, §7

[3] = tested on: TRZAS = Triticum aestivum (spring wheat); assay: as above; type: in vivo
Description: as §1, §2, §3, §4, §5, §6, §7

[4] = tested on: PAPRH (corn poppy); assay: Postemergence herbicidal activity, greenhouse, visual injury; type: in vivo, Papaver rhoeas
Description: as §1, §2, §3, §4, §5, §6, §7

[5] = tested on: POLCO (wild buckwheat); assay: as above; type: in vivo, Polygonum convolvulus
Description: as §1, §2, §3, §4, §5, §6, §7

[6] = tested on: STEME = Stellaria media (common chickweed); assay: as above; type: in vivo
Description: as §1, §2, §3, §4, §5, §6, §7

[7] = tested on: GALAP = Galium aparine (cleavers); assay: as above; type: in vivo
Description: as §1, §2, §3, §4, §5, §6, §7

[8] = tested on: KCHSC = Kochia scoparia (kochia); assay: as above; type: in vivo
Description: as §1, §2, §3, §4, §5, §6, §7

[9] = tested on: VERPE = Veronica persica (bird's-eye speedwell); assay: as above; type: in vivo
Description: as §1, §2, §3, §4, §5, §6, §7

[10] = tested on: SASKR = Salsola iberica (Russian thistle); assay: as above; type: in vivo
Description: as §1, §2, §3, §4, §5, §6, §7

[11] = tested on: VIOTR = Viola tricolor (wild pansy); assay: as above; type: in vivo
Description: as §1, §2, §3, §4, §5, §6, §7

[12] = tested on: MATCH = Matricaria chamomila (scented mayweed); assay: as above; type: in vivo
Description: as §1, §2, §3, §4, §5, §6, §7

O=C(O)COc1ccc(Cl)c2cccnc12 [Cloquintocet-acid, [(5-chloro-8-quinolinyl)oxy]acetic acid]
0%: LAMPU Ob (observed injury) ([1]; applied alone at 0.55 g/ha) | LAMPU Ob (observed injury) ([1]; applied alone at 1.1 g/ha) | LAMPU Ob (observed injury) ([1]; applied alone at 2.2 g/ha) | LAMPU Ob (observed injury) ([1]; applied alone at 4.4 g/ha) | HORVS Ob (observed injury) ([2]; applied alone at 0.55 g/ha) | HORVS Ob (observed injury) ([2]; applied alone at 1.1 g/ha) | HORVS Ob (observed injury) ([2]; applied alone at 2.2 g/ha) | HORVS Ob (observed injury) ([2]; applied alone at 4.4 g/ha) | TRZAS Ob (observed injury) ([3]; applied alone at 0.55 g/ha) | TRZAS Ob (observed injury) ([3]; applied alone at 1.1 g/ha) | TRZAS Ob (observed injury) ([3]; applied alone at 2.2 g/ha) | TRZAS Ob (observed injury) ([3]; applied alone at 4.4 g/ha) | PAPRH Ob (observed injury) ([4]; applied alone at 0.55 g/ha) | PAPRH Ob (observed injury) ([4]; applied alone at 1.1 g/ha) | PAPRH Ob (observed injury) ([4]; applied alone at 2.2 g/ha) | PAPRH Ob (observed injury) ([4]; applied alone at 4.4 g/ha)

CCCCCC(C)OC(=O)COc1ccc(Cl)c2cccnc12 (centres unmarked) [Cloquintocet-mexyl, cloquintocet-mexyl]
0%: LAMPU Ob (observed injury) ([1]; applied alone at 1.1 g/ha) | LAMPU Ob (observed injury) ([1]; applied alone at 2.2 g/ha) | LAMPU Ob (observed injury) ([1]; applied alone at 4.4 g/ha) | LAMPU Ob (observed injury) ([1]; applied alone at 8.75 g/ha) | LAMPU Ob (observed injury) ([1]; applied alone at 17.5 g/ha) | LAMPU Ob (observed injury) ([1]; applied alone at 35 g/ha) | LAMPU Ob (observed injury) ([1]; applied alone at 70 g/ha) | POLCO Ob (observed injury) ([5]; applied alone at 1.1 g/ha) | POLCO Ob (observed injury) ([5]; applied alone at 2.2 g/ha) | POLCO Ob (observed injury) ([5]; applied alone at 4.4 g/ha) | POLCO Ob (observed injury) ([5]; applied alone at 8.75 g/ha) | POLCO Ob (observed injury) ([5]; applied alone at 17.5 g/ha) | POLCO Ob (observed injury) ([5]; applied alone at 35 g/ha) | POLCO Ob (observed injury) ([5]; applied alone at 70 g/ha) | PAPRH Ob (observed injury) ([4]; applied alone at 1.1 g/ha) | PAPRH Ob (observed injury) ([4]; applied alone at 2.2 g/ha) | PAPRH Ob (observed injury) ([4]; applied alone at 4.4 g/ha) | PAPRH Ob (observed injury) ([4]; applied alone at 8.75 g/ha) | PAPRH Ob (observed injury) ([4]; applied alone at 17.5 g/ha) | PAPRH Ob (observed injury) ([4]; applied alone at 35 g/ha) | PAPRH Ob (observed injury) ([4]; applied alone at 70 g/ha) | STEME Ob (observed injury) ([6]; applied alone at 1.1 g/ha) | STEME Ob (observed injury) ([6]; applied alone at 2.2 g/ha) | STEME Ob (observed injury) ([6]; applied alone at 4.4 g/ha) | STEME Ob (observed injury) ([6]; applied alone at 8.75 g/ha) | STEME Ob (observed injury) ([6]; applied alone at 17.5 g/ha) | STEME Ob (observed injury) ([6]; applied alone at 35 g/ha) | STEME Ob (observed injury) ([6]; applied alone at 70 g/ha) | GALAP Ob (observed injury) ([7]; applied alone at 1.1 g/ha) | GALAP Ob (observed injury) ([7]; applied alone at 2.2 g/ha) | GALAP Ob (observed injury) ([7]; applied alone at 4.4 g/ha) | GALAP Ob (observed injury) ([7]; applied alone at 8.75 g/ha) | GALAP Ob (observed injury) ([7]; applied alone at 17.5 g/ha) | GALAP Ob (observed injury) ([7]; applied alone at 35 g/ha) | GALAP Ob (observed injury) ([7]; applied alone at 70 g/ha) | KCHSC Ob (observed injury) ([8]; applied alone at 1.0937 g/ha) | KCHSC Ob (observed injury) ([8]; applied alone at 1.1 g/ha) | KCHSC Ob (observed injury) ([8]; applied alone at 2.1875 g/ha) | KCHSC Ob (observed injury) ([8]; applied alone at 2.2 g/ha) | KCHSC Ob (observed injury) ([8]; applied alone at 4.375 g/ha) | KCHSC Ob (observed injury) ([8]; applied alone at 4.4 g/ha) | KCHSC Ob (observed injury) ([8]; applied alone at 8.75 g/ha) | KCHSC Ob (observed injury) ([8]; applied alone at 17.5 g/ha) | KCHSC Ob (observed injury) ([8]; applied alone at 35 g/ha) | KCHSC Ob (observed injury) ([8]; applied alone at 70 g/ha) | VERPE Ob (observed injury) ([9]; applied alone at 1.0937 g/ha) | VERPE Ob (observed injury) ([9]; applied alone at 1.1 g/ha) | VERPE Ob (observed injury) ([9]; applied alone at 2.1875 g/ha) | VERPE Ob (observed injury) ([9]; applied alone at 2.2 g/ha) | VERPE Ob (observed injury) ([9]; applied alone at 4.375 g/ha) | VERPE Ob (observed injury) ([9]; applied alone at 4.4 g/ha) | VERPE Ob (observed injury) ([9]; applied alone at 8.75 g/ha) | VERPE Ob (observed injury) ([9]; applied alone at 17.5 g/ha) | VERPE Ob (observed injury) ([9]; applied alone at 35 g/ha) | VERPE Ob (observed injury) ([9]; applied alone at 70 g/ha) | SASKR Ob (observed injury) ([10]; applied alone at 1.0937 g/ha) | SASKR Ob (observed injury) ([10]; applied alone at 1.1 g/ha) | SASKR Ob (observed injury) ([10]; applied alone at 2.1875 g/ha) | SASKR Ob (observed injury) ([10]; applied alone at 2.2 g/ha) | SASKR Ob (observed injury) ([10]; applied alone at 4.375 g/ha) | SASKR Ob (observed injury) ([10]; applied alone at 4.4 g/ha) | SASKR Ob (observed injury) ([10]; applied alone at 8.75 g/ha) | SASKR Ob (observed injury) ([10]; applied alone at 17.5 g/ha) | SASKR Ob (observed injury) ([10]; applied alone at 35 g/ha) | SASKR Ob (observed injury) ([10]; applied alone at 70 g/ha) | VIOTR Ob (observed injury) ([11]; applied alone at 1.0937 g/ha) | VIOTR Ob (observed injury) ([11]; applied alone at 1.1 g/ha) | VIOTR Ob (observed injury) ([11]; applied alone at 2.1875 g/ha) | VIOTR Ob (observed injury) ([11]; applied alone at 2.2 g/ha) | VIOTR Ob (observed injury) ([11]; applied alone at 4.375 g/ha) | VIOTR Ob (observed injury) ([11]; applied alone at 4.4 g/ha) | VIOTR Ob (observed injury) ([11]; applied alone at 8.75 g/ha) | VIOTR Ob (observed injury) ([11]; applied alone at 17.5 g/ha) | VIOTR Ob (observed injury) ([11]; applied alone at 35 g/ha) | VIOTR Ob (observed injury) ([11]; applied alone at 70 g/ha) | MATCH Ob (observed injury) ([12]; applied alone at 1.0937 g/ha) | MATCH Ob (observed injury) ([12]; applied alone at 1.1 g/ha) | MATCH Ob (observed injury) ([12]; applied alone at 2.1875 g/ha) | MATCH Ob (observed injury) ([12]; applied alone at 2.2 g/ha) | MATCH Ob (observed injury) ([12]; applied alone at 4.375 g/ha) | MATCH Ob (observed injury) ([12]; applied alone at 4.4 g/ha) | MATCH Ob (observed injury) ([12]; applied alone at 8.75 g/ha) | MATCH Ob (observed injury) ([12]; applied alone at 17.5 g/ha) | MATCH Ob (observed injury) ([12]; applied alone at 35 g/ha) | MATCH Ob (observed injury) ([12]; applied alone at 70 g/ha)
